Where two headings read alike, the source gives them in different places.
Assay: pKa values by non-aqueous titration (half neutralization potential)
Type: physicochemical
Details: for HPN: 1:1 acetonitrile:chloroform, 0.1N perchloric acid/dioxane titrant
Description: In order to determine the pKa values of water insoluble materials, organic references with known pKa values in water are titrated non-aqueously. A plot of the half neutralization potential (HNP) versus the known aqueous pKa value of the reference material is established. The HNP of the test material is determined and extrapolated to find the corresponding pKa value of the test material. Such organic reference materials include 2,2,6,6-tetrarnethylpiperidine; 4-hydroxy-2,2,6,6-tetramethylpiperidine; 1-hydroxyethyl-4-hydroxy-2,2,6,6-tetramethylpiperidine; triacetoneamine and N-methylaniline.
The reference materials, which are structurally at least peripherally related to the instant test materials and are soluble in both water and 1:1 acetonitrile:chloroform, are used to make a calibration plot in the non-aqueous titration (1:1 acetonitrile:chloroform solvent and 0.1N perchloric acid/dioxane titrant) system. Approximately 0.5 milliequivalents of test material is weighed into a titration beaker. Thirty mL of acetonitrile is added to dissolve the sample. Prior to titration, 30 mL of chloroform is added. Titration is carried out and the HNP is determined. The electrolyte for the reference electrode is 2-(aminomethylpyridine. The electrode is allowed to stand in the solvent system for two hours after filling with the electrolyte to achieve equilibration. All samples are run in duplicate. The pKa values are seen in the table below.

[1] = extrapolated from HNP versus known aqueous pKa of reference materials, read-out: Calculated pKa
[2] = pKa of the test hindered amine contained in the formulation, read-out: HALS pKa
[3] = extrapolated from HNP versus known aqueous pKa of reference materials

HPN [mv] | pKa [1] | pKa [2] | Calculated pKa [3] | SMILES
523 | 3.9 | 4 | – | CCCCCCCCCCCCCCCCCC(=O)OC1CC(C)(C)N(OCC(C)(C)O)C(C)(C)C1 [Example 73, 1-(2-Hydroxy-2-methylpropoxy)-4-octadecanoyloxy-2,2,6,6-tetramethylpiperidine]
436 | – | – | 4.9 | CCCCCCCCCCCCCCCCCC(=O)OC1CC(C)(C)N(OC2CCCCC2)C(C)(C)C1 [II, 1-cyclohexyloxy-4-ocatadecanoyloxy-2,2,6,6-tetramethylpiperidine]

The next lines start with the compound.

SMILES | HPN [mv] | pKa [1] | pKa [2] | Calculated pKa [3]
CC(C)(O)CON1C(C)(C)CC(OC(=O)CCCCCCCCC(=O)OC2CC(C)(C)N(OCC(C)(C)O)C(C)(C)C2)CC1(C)C [Example 2] | 513 | – | – | 3.8
CC1(C)CC(OC(=O)CCCCCCCCC(=O)OC2CC(C)(C)NC(C)(C)C2)CC(C)(C)N1 [TINUVIN® 770, bis(2,2,6,6-tetramethylpiperidin-4-yl) sebacate] | – | – | 9.1 | –
CCCCCCCCON1C(C)(C)CC(OC(=O)CCCCCCCCC(=O)OC2CC(C)(C)N(OCCCCCCCC)C(C)(C)C2)CC1(C)C [TINUVIN® 123, bis(1-octyloxy-2,2,6,6-tetramethylpiperidin-4-yl) sebacate] | – | 4.6 | 4.6 | –

From patent US6376584B1, “Hydroxy-substituted N-alkoxy hindered amines and compositions stabilized therewith” (Ciba Specialty Chemicals Corporation, priority 1999, dated 2002)
